How the values were obtained:
[1] = molecular target: T1, Casein kinase II (Homo sapiens) (UniProt P67870+P68400+P19784); experiment: Inhibition of human recombinant CK2 using RRRDDDSDDD-EDANS peptide substrate at 10 µM by capillary electrophoresis analysis
DU-145 = experiment: Antitumor activity against human DU145 cells assessed as growth inhibition; format: functional
Homo sapiens = species on record: Homo sapiens; experiment: Antitumor activity against human lymphoma assessed as growth inhibition at 27 uM; format: functional
Casein kinase II = Casein kinase II (Homo sapiens, UniProt P19784+P67870+P68400); experiment: Inhibition of human recombinant CK2 using RRRDDDSDDD-EDANS peptide substrate by capillary electrophoresis analysis; format: protein-complex assay
HOP-92 = experiment: Antitumor activity against human HOP92 cells assessed as growth inhibition; format: functional
OVCAR-5 = experiment: Antitumor activity against human OVCAR5 cells assessed as growth inhibition; format: functional
[2] = Antitumor activity against human NCI-ADR-RES cells assessed as growth inhibition; format: functional
[3] = molecular target: T1, Casein kinase II (Homo sapiens); experiment: Inhibition of human recombinant CK2 using RRRDDDSDDD-EDANS peptide substrate at […] by capillary electrophoresis analysis; format: protein-complex assay

Casein kinase II, sequence (P67870 whole entry): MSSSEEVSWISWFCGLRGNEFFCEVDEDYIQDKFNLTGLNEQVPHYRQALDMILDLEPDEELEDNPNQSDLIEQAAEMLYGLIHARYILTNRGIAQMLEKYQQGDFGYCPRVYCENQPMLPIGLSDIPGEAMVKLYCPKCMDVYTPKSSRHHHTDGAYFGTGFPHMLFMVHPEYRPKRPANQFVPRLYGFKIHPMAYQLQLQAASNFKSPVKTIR
Casein kinase II, sequence (P68400 whole entry): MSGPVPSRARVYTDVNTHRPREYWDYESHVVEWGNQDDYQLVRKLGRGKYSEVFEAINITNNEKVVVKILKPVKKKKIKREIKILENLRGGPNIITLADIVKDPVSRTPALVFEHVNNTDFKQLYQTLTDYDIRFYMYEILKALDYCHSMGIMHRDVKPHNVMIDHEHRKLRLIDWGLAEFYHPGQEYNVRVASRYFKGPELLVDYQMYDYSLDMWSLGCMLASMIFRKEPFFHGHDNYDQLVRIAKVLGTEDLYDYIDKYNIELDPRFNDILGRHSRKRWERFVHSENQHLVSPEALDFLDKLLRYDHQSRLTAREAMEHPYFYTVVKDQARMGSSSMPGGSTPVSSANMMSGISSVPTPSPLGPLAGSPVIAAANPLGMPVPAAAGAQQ
Casein kinase II, sequence (P19784 whole entry): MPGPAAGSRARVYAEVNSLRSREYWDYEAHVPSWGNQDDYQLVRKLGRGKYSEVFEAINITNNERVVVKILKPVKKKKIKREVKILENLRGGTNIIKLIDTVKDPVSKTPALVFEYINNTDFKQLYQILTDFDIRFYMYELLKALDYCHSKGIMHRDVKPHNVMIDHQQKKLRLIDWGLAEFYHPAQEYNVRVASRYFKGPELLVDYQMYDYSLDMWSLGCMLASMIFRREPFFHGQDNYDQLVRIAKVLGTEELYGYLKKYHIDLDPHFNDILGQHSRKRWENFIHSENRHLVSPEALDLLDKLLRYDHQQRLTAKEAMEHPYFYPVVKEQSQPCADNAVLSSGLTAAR

CC(C)=CC(=O)c1oc2c(Cl)c(Cl)c(O)c(C#N)c2c1N
inhibition [1]: > 96%

CC(C)=CC(=O)c1coc2ccc(O)cc12
inhibition [1]: 39%

CCOC(=O)C1=C(C)N(c2ccc(Cl)cc2)C(=N)C12C(=O)C(Cl)=C(Cl)C(O)=C2C#N (centres undefined)
GI50 (DU-145): 339 nM

CC(=O)Oc1c(Cl)c(Cl)c2oc(C(=O)C=C(C)C)c(N)c2c1C#N
growth inhibition (GI) (Homo sapiens): > 99% | inhibition [1]: 93% | IC50 (Casein kinase II): 200 nM

CCOC(=O)c1oc2c(Cl)c(Cl)c(OC(C)=O)c(C#N)c2c1N
inhibition [1]: 69% | IC50 (Casein kinase II): 2400 nM

CCOC(=O)C1=C(C)N(c2ccc(F)cc2F)C(=N)C12C(=O)C(Cl)=C(Cl)C(O)=C2C#N (centres undefined)
GI50 (HOP-92): 1780 nM

CCOC(=O)C1=C(C)N(Cc2ccc(Cl)cc2Cl)C(=N)C12C(=O)C(Cl)=C(Cl)C(O)=C2C#N (centres undefined)
GI50 (OVCAR-5): 2690 nM | GI50 [2]: 191 nM

CCOC(=O)C1=C(C)N(Cc2ccc(Cl)cc2Cl)/C(=N\C(C)=O)C12C(=O)C(Cl)=C(Cl)C(OC(C)=O)=C2C#N (centres undefined)
inhibition [3]: 0%

CCOC(=O)c1oc2ccc(OC(C)=O)c(CNC(C)=O)c2c1NC(C)=O
inhibition [1]: 0%

CCOC(=O)C1=C(c2ccccc2)N(c2ccc(OC)cc2)C(=N)C12C(=O)C(Cl)=C(Cl)C(O)=C2C#N (centres undefined)
GI50 (HOP-92): 550 nM

Source: ChEMBL document CHEMBL1764952, “A novel application of DDQ as electrophile in the Nenitzescu reaction” (Bioorg Med Chem, 2011)
